In patent publication US20140031217A1, “HERBICIDAL COMPOSITIONS COMPRISING 4-AMINO-3-CHLORO-5-FLUORO-6-(4-CHLORO-2-FLUORO-3-METHOXYPHENYL)PYRIDINE-2-CARBOXYLIC ACID OR A DERIVATIVE THEREOF AND AUXIN TRANSPORT INHIBITORS” (DOW AGROSCIENCES LLC, priority 2012, published 2014):

Tested on: DIGSA
Assay: Postemergence foliar-applied greenhouse weed control, DIGSA
Type: in vivo, Digitaria sanguinalis (L.) Scop.
Description: Seeds or nutlets of the desired test plant species were planted in a soil matrix prepared by mixing a loam or sandy loam soil (e.g., 28.6 percent silt, 18.8 percent clay, and 52.6 percent sand, with a pH of about 5.8 and an organic matter content of about 1.8 percent) and calcareous grit in an 80 to 20 ratio. The soil matrix was contained in plastic pots with a volume of 1 quart and a surface area of 83.6 square centimeters (cm^2). When required to ensure good germination and healthy plants, a fungicide treatment and/or other chemical or physical treatment was applied. The plants were grown for 8-22 days in a greenhouse with an approximate 14 h photoperiod which was maintained at about 29° C. during the day and 26° C. during the night. Nutrients (Peters Excel® 15-5-15 5-Ca 2-Mg and iron chelate) were applied in the irrigation solution as needed and water was added on a regular basis. Supplemental lighting was provided with overhead metal halide 1000-Watt lamps as necessary. The plants were employed for testing when they reached the first through fourth true leaf stage.
Treatments consisted of the acid or esters of 4-amino-3-chloro-5-fluoro-6-(4-chloro-2-fluoro-3-methoxy-phenyl) pyridine-2-carboxylic acid (Compound A), each formulated as an SC (suspension concentrate), and various herbicidal components alone and in combination. Forms of compound A were applied on an acid equivalent basis.
Other herbicidal components were applied on an active ingredient basis and included auxin transport inhibiting (ATI) herbicides chlorflurenol (technical material), chlorflurenol-methyl (technical material), diflufenzopyr (technical material), diflufenzopyr sodium (technical material), flurenol-methyl (technical material) and naptalam (technical material).
Treatment requirements were calculated based upon the rates being tested, the concentration of active ingredient or acid equivalent in the formulation, and a 12 mL application volume at a rate of 187 L/ha.
For treatments comprised of formulated and technical compounds, weighed amounts of the technical materials were placed individually in 25 mL glass vials and dissolved in a volume of 97:3 v/v acetone/DMSO to obtain 12× stock solutions, and measured amounts of the formulated compounds were placed individually in 25 mL glass vials and diluted in a volume of 1.5% (v/v) crop oil concentrate or water to obtain 12× stock solutions. […] Application solutions were prepared by adding an appropriate amount of each stock solution (e.g., 1 mL) and diluted to the appropriate final concentrations with the addition of an appropriate amount of an aqueous mixture of 1.5% (v/v) crop oil concentrate so that the final spray solutions contained 1.25% (v/v) crop oil concentrate. When required, additional water and/or 97:3 v/v acetone/DMSO was added to individual application solutions so that the final acetone and DMSO concentrations of the application solutions being compared were 8.1% and 0.25%, respectively.
All stock solutions and applications solutions were visually inspected for compound compatibility prior to application. Spray solutions were applied to the plant material with an overhead Mandel track sprayer equipped with an 8002E nozzle calibrated to deliver 187 L/ha over an application area of 0.503 m^2 at a spray height of 18 to 20 inches (46 to 50 cm) above average plant canopy height. Control plants were sprayed in the same manner with the solvent blank.
The treated plants and control plants were placed in a greenhouse as described above and watered by sub-irrigation to prevent wash-off of the test compounds. After approximately 3 weeks, the condition of the test plants as compared with that of the untreated plants was determined visually and scored on a scale of 0 to 100 percent where 0 corresponds to no injury or growth inhibition and 100 corresponds to complete kill. […]

For `COc1c(Cl)ccc(-c2nc(C(=O)OCc3ccccc3)c(Cl)c(N)c2F)c1F` [Compound A Benzyl Ester], the “Visual Weed Control (%) Obs” value (20 DAA, 4.38 gae/ha) was 40%, the “Visual Weed Control (%) Obs” value (20 DAA, 8.75 gae/ha) was 40% and the “Visual Weed Control (%) Obs” value (21 DAA, 17.5 gae/ha) was 30%.
